In the supplement of paper PMC10307832:

Tests used:
Assay in all cases: relative viability (nuclei count vs DMSO), 5 days (fraction); higher = more cells survive
[1] = compound: C1CNCCC1C2=CC(=NN2)C3=CC=NC=C3 + CC(=O)Nc1cccc(-n2c(=O)n(C3CC3)c(=O)c3c(Nc4ccc(I)cc4F)n(C)c(=O)c(C)c32)c1 [Trametinib] (partner 0.02 µM)
Summary of the method: (§1)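 Relative viability was taken as the ratio of nuclei in treated wells to nuclei in vehicle wells. Lung cancer cell lines in 1536-well plates received compounds by pin tool one day after seeding, either one drug alone or a fixed anchor-drug dose plus five library-drug doses (not always all listed) in √10 steps. Nuclei were counted on 4× images after 5 days of treatment, and values are medians of duplicate plates.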

[2] = compound: C1CNCCC1C2=CC(=NN2)C3=CC=NC=C3 + COc1cccc2cc(-c3nc([C@H]4CC[C@H](C(=O)O)CC4)n4ncnc(N)c34)[nH]c12 [OSI-027] (partner 0.5 µM)
Summary of the method: as §1

Tanzisertib + Linsitinib = compound: O[C@H]1CC[C@H](Nc2ncc3nc(Nc4c(F)cc(F)cc4F)n([C@H]4CCOC4)c3n2)CC1 [Tanzisertib] + C[C@]1(O)C[C@@H](c2nc(-c3ccc4ccc(-c5ccccc5)nc4c3)c3c(N)nccn32)C1 [Linsitinib] (partner 1 µM)
Summary of the method: as §1

Tanzisertib + Tozasertib = compound: O[C@H]1CC[C@H](Nc2ncc3nc(Nc4c(F)cc(F)cc4F)n([C@H]4CCOC4)c3n2)CC1 [Tanzisertib] + Cc1cc(Nc2cc(N3CCN(C)CC3)nc(Sc3ccc(NC(=O)C4CC4)cc3)n2)n[nH]1 [Tozasertib] (partner 0.1 µM)
Summary of the method: as §1

| Cell Line | relative viability ([1]; first compound 0.08 µM) | relative viability ([1]; first compound 0.8 µM) | relative viability ([1]; first compound 2.53 µM) | relative viability ([1]; first compound 8 µM) | relative viability ([2]; first compound 0.08 µM) | relative viability ([2]; first compound 0.8 µM) | relative viability ([2]; first compound 2.53 µM) | relative viability ([2]; first compound 8 µM) | relative viability (Tanzisertib + Linsitinib; first compound 0.08 µM) | relative viability (Tanzisertib + Linsitinib; first compound 0.253 µM) | relative viability (Tanzisertib + Linsitinib; first compound 0.8 µM) | relative viability (Tanzisertib + Linsitinib; first compound 2.53 µM) | relative viability (Tanzisertib + Linsitinib; first compound 8 µM) | relative viability (Tanzisertib + Tozasertib; first compound 0.08 µM) | relative viability (Tanzisertib + Tozasertib; first compound 0.253 µM) | relative viability (Tanzisertib + Tozasertib; first compound 0.8 µM) | relative viability (Tanzisertib + Tozasertib; first compound 2.53 µM) | relative viability (Tanzisertib + Tozasertib; first compound 8 µM) |
| --- | --- | --- | --- | --- | --- | --- | --- | --- | --- | --- | --- | --- | --- | --- | --- | --- | --- | --- |
| NCI-H1355 | 0.419 | 0.442 | 0.466 | 0.406 | 0.446 | 0.372 | 0.472 | 0.476 | 0.785 | 0.826 | 0.923 | 0.858 | 0.777 | 0.526 | 0.562 | 0.576 | 0.528 | 0.405 |
| NCI-H1395 | 0.905 | 0.992 | 0.966 | 1.16 | 0.603 | 0.57 | 0.71 | 0.694 | 1.32 | 0.956 | 1.08 | 1.04 | 1.05 | 0.869 | 0.773 | 0.783 | 0.687 | 0.712 |
| NCI-H1437 | 0.54 | 0.536 | 0.679 | 0.639 | 0.835 | 0.922 | 0.896 | 0.97 | 1.14 | 0.981 | 1.11 | 1.13 | 0.971 | 0.451 | 0.394 | 0.407 | 0.381 | 0.384 |
| NCI-H1651 | 0.816 | 0.855 | 0.897 | 0.815 | 0.649 | 0.767 | 0.827 | 0.76 | 0.956 | 0.837 | 1.05 | 1.05 | 0.854 | 0.711 | 0.707 | 0.637 | 0.689 | 0.557 |
| NCI-H1666 | 0.749 | 0.87 | 0.979 | 0.915 | 0.871 | 0.967 | 0.794 | 0.878 | 0.834 | 0.862 | 0.832 | 0.777 | 0.933 | 0.609 | 0.698 | 0.611 | 0.656 | 0.592 |
| NCI-H1734 | 0.531 | 0.708 | 0.668 | 0.667 | 0.543 | 0.616 | 0.674 | 0.653 | 1.09 | 0.902 | 0.861 | 0.871 | 0.87 | 0.267 | 0.282 | 0.254 | 0.251 | 0.236 |
| NCI-H1755 | 0.744 | 0.833 | 0.755 | 0.739 | 0.738 |  | 0.754 | 0.69 | 0.989 | 0.997 | 0.975 | 0.953 | 0.892 | 0.58 | 0.618 | 0.561 | 0.582 | 0.533 |
| NCI-H1793 | 0.459 |  | 0.414 | 0.406 | 0.261 | 0.246 | 0.302 | 0.23 | 1.04 | 0.686 | 0.972 | 0.884 | 0.816 | 0.289 | 0.287 | 0.303 | 0.246 | 0.223 |
| NCI-H1915 | 0.289 | 0.298 | 0.3 | 0.299 | 0.643 | 0.641 | 0.623 | 0.646 | 1.07 | 1.14 | 1.08 | 1.01 | 1.11 | 0.401 | 0.457 | 0.373 | 0.384 | 0.322 |
